The test system of experiment [1] is stable HCV 1b RLuc replicon cells (dicistronic genotype 1b Con1 replicon). Description: Renilla luciferase HCV replicon reporter assay, genotype 1b. The format is cell-based. The note with it: Hepatitis C virus, 72 h, stable 1b Con1 RLuc replicon cells, 72 hours; read-out: 1b. The method, then:
(§1) Evaluation of Cell-Based Anti-HCV Activity:
(§2) Antiviral potency (EC50) was determined using a Renilla luciferase (RLuc)-based HCV replicon reporter assay. To perform the assay for genotype 1 and 2a JFH-1, stable HCV 1a RLuc replicon cells (harboring a dicistronic genotype 1a H77 replicon that encodes a RLuc reporter), stable HCV 1b RLuc replicon cells (harboring a dicistronic genotype 1b Con1 replicon that encodes a RLuc reporter), or stable HCV 2a JFH-1 Rluc replicon cells (harboring a dicistronic genotype 2a JFH-1 replicon that encodes a RLuc reporter; with L31 present in NS5A) were dispensed into 384-well plates for EC50 assays. To perform the assay for genotype 2a (with M31 present in NS5A) or 2b, NS5A chimeric genotype 2a JFH-1 replicons that encodes a RLuc-Neo reporter and either genotype 2a J6 strain NS5A gene or genotype 2b MD2b-1 strain NS5A gene (both with M31 present) respectively, were either transiently transfected (t) into Huh-Lunet cells or were established as stably replicating replicon cells (s) is provided. Either cells were dispensed into 384-well plates for EC50 assays. To perform the assay for genotype 3 and 4, NS5A chimeric genotype 1b Con1 replicons that encodes a Pi-RLuc reporter and either genotype 3a S52 strain NS5A gene or genotype 4a ED43 strain NS5A gene respectively, were transiently transfected (t) into Huh-Lunet cells, which were subsequently dispensed into 384-well plates. Compounds were dissolved in DMSO at a concentration of 10 mM and diluted in DMSO either manually or using an automated pipeting instrument. Serially 3-fold diluted compounds were either manually mixed with cell culture media and added to the seeded cells or directly added to the cells using an automated instrument. DMSO was used as a negative (solvent; no inhibition) control, and the protease inhibitor ITMN-191 was included at a concentration>100×EC50 as a positive control. 72 hours later, cells were lysed and Renilla luciferase activity quantified as recommended by the manufacturer (Promega-Madison, Wis.). Non-linear regression was performed to calculate EC50 values.
A general note: A replicon is a self-replicating genome or part of one, used to study replication in cells.

For experiment [2], the system named is stable HCV 1a RLuc replicon cells (dicistronic genotype 1a H77 replicon). In words: Renilla luciferase HCV replicon reporter assay, genotype 1a. The format is cell-based. To be noted: Hepatitis C virus, 72 h, stable 1a H77 RLuc replicon cells. How it is done: as §1, §2
The subject of experiment [3] is stable HCV 2a JFH-1 Rluc replicon cells (L31 present in NS5A). In words: Renilla luciferase HCV replicon reporter assay, genotype 2a JFH-1. To be noted: Hepatitis C virus. The format is cell-based. The method, then:
as §1, §2

For experiment [4], the system named is NS5A chimeric genotype 2a JFH-1 replicon with genotype 2b MD2b-1 strain NS5A gene (M31 present). Description: Replicon assay, genotype 2b NS5A chimera. Format: cell-based, HCV. To be noted: Hepatitis C virus. The method, then: as §1, §2
For experiment [5], the system named is NS5A chimeric genotype 1b Con1 replicon with genotype 3a S52 strain NS5A gene. In words: Replicon assay, genotype 3a NS5A chimera. The format is cell-based, HCV. The note with it: Hepatitis C virus.
The subject of experiment [6] is NS5A chimeric genotype 1b Con1 replicon with genotype 4a ED43 strain NS5A gene. Description: Replicon assay, genotype 4a NS5A chimera. Format: cell-based, HCV. The note with it: Hepatitis C virus.
In experiment [7] the test system is NS5A chimeric genotype 2a JFH-1 replicon with genotype 2a J6 strain NS5A gene (M31 present). Description: Replicon assay, genotype 2a J6 NS5A chimera. The format is cell-based, HCV. To be noted: Hepatitis C virus, read-out: 2a J6 (t) (nM), genotype 2a J6 NS5A chimeric replicon (M31), transiently transfected (t) into Huh-Lunet cells. The method, then:
as §1, §2

The mark [8] stands for this setting: read-out: 2a JFH (nM), genotype 2a JFH-1 replicon (L31 in NS5A), stable cells.
The mark [9] stands for this setting: read-out: 2a JFH, stable 2a JFH-1 Rluc replicon cells, L31 in NS5A, activity range.
Setting [10] is: 2BS, read-out: 2b (s), stably replicating replicon cells (s), activity range.
Setting [11] is: read-out: 2b (s) (nM), genotype 2b MD2b-1 NS5A chimeric replicon (M31), stably replicating replicon cells (s).
[12] abbreviates: read-out: 3a (s) (nM), genotype 3a NS5A chimeric replicon, stable replicon cells (s).
[13] abbreviates: read-out: 3a (s), (s), activity range.
The mark [14] stands for this setting: read-out: 4a (s) (nM), genotype 4a NS5A chimeric replicon, stable replicon cells (s).
Where [15] appears, read: read-out: 4a (s), (s), activity range.

SMILES strings stand for the structures. Where two headings read alike, the source gives them in different places.

On to `COC[C@H]1C[C@@H](c2ncc(-c3ccc4c(c3)COc3cc5c(ccc6nc([C@@H]7CC[C@H](C)N7C(=O)[C@@H](NC(=O)OC)C(C)C)[nH]c65)cc3-4)[nH]2)N(C(=O)[C@@H](NC(=O)OC)C2CCOCC2)C1` [GI, Methyl [(2S)-1-{(2S,4S)-2-[9-(2-{(2S,5S)-1-[(2S)-2-[(methoxycarbonyl)amino]-2-(tetrahydro-2H-pyran-4-yl)acetyl]-4-(methoxymethyl)pyrrolidin-2-yl}-1H-imidazol-5-yl)-1,11-dihydroisochromeno[4′,3′:6,7]naphtho[1,2-d]imidazol-2-yl]-5-methylpyrrolidin-1-yl}-3-methyl-1-oxobutan-2-yl]carbamate], for which the EC50 was 0.064 nM in experiment [1]; 0.055 nM in experiment [2]; below 0.1 nM in experiment [2] (activity range); 0.025 nM in experiment [3] (setting [8]); below 0.1 nM in experiment [3] (setting [9]); 0.1 to 0.999 nM in experiment [4] (setting [10]). In addition, the EC50 is 0.193 nM in experiment [4] (setting [11]); 0.126 nM in experiment [5] (setting [12]); 0.1 to 0.999 nM in experiment [5] (setting [13]); 0.022 nM in experiment [6] (setting [14]); below 0.1 nM in experiment [6] (setting [15]).

For the compound `CC[C@H](C)[C@H](NC(=O)OC)C(=O)N1C[C@@H](COC)C[C@H]1c1ncc(-c2ccc3c(c2)COc2cc4c(ccc5nc([C@@H]6CC[C@H](C)N6C(=O)[C@@H](NC(=O)OC)[C@@H](C)OC)[nH]c54)cc2-3)[nH]1` [FT, Methyl {(2S,3S)-1-[(2S,4S)-2-(5-{2-[(2S,5S)-1-{(2S,3R)-3-methoxy-2-[(methoxycarbonyl)amino]butanoyl}-5-methylpyrrolidin-2-yl]-1,11-dihydroisochromeno[4′,3′:6,7]naphtho[1,2-d]imidazol-9-yl}-1H-imidazol-2-yl)-4-(methoxymethyl)pyrrolidin-1-yl]-3-methyl-1-oxopentan-2-yl}carbamate], the EC50 is 0.045 nM in experiment [1]; 0.04 nM in experiment [2]; below 0.1 nM in experiment [2] (activity range); 0.029 nM in experiment [3] (setting [8]); below 0.1 nM in experiment [3] (setting [9]); 0.1 to 0.999 nM in experiment [4] (setting [10]). Further, the EC50 in experiment [4] (setting [11]) was 0.395 nM; in experiment [5] (setting [12]), 0.283 nM; in experiment [5] (setting [13]), 0.1 to 0.999 nM; in experiment [6] (setting [14]) it was 0.028 nM; in experiment [6] (setting [15]) it was below 0.1 nM.

Take `COC(=O)N[C@H](C(=O)N1C[C@@H](C)C[C@H]1c1nc2ccc3cc4c(cc3c2[nH]1)OCc1cc(-c2cnc([C@@H]3CC[C@H](C)N3C(=O)[C@@H](NC(=O)OC)C3CCOCC3)[nH]2)ccc1-4)C(C)C` [FP, Methyl [(2S)-1-{(2S,4S)-2-[9-(2-{(2S,5S)-1-[(2S)-2-[(methoxycarbonyl)amino]-2-(tetrahydro-2H-pyran-4-yl)acetyl]-5-methylpyrrolidin-2-yl}-1H-imidazol-5-yl)-1,11-dihydroisochromeno[4′,3′:6,7]naphtho[1,2-d]imidazol-2-yl]-4-methylpyrrolidin-1-yl}-3-methyl-1-oxobutan-2-yl]carbamate]: the EC50 in experiment [1] was 0.024 nM; in experiment [2] it was 0.016 nM; in experiment [2] (activity range) it was below 0.1 nM; in experiment [3] (setting [8]) it was 0.016 nM; in experiment [3] (setting [9]) it was below 0.1 nM; in experiment [4] (setting [10]) it was below 0.1 nM. Besides, the EC50 was 0.085 nM in experiment [4] (setting [11]); 0.052 nM in experiment [5] (setting [12]); below 0.1 nM in experiment [5] (setting [13]); 0.017 nM in experiment [6] (setting [14]); below 0.1 nM in experiment [6] (setting [15]).

Regarding `COC(=O)N[C@H](C(=O)N1C[C@@H](C)C[C@H]1c1ncc(-c2ccc3c(c2)COc2cc4c(ccc5nc([C@@H]6CC[C@H](C)N6C(=O)[C@@H](NC(=O)OC)[C@@H](C)OC)[nH]c54)cc2-3)[nH]1)C(C)C` [GH, Methyl {(2S)-1-[(2S,4S)-2-(5-{2-[(2S,5S)-1-{(2S,3R)-3-methoxy-2-[(methoxycarbonyl)amino]butanoyl}-5-methylpyrrolidin-2-yl]-1,11-dihydroisochromeno[4′,3′:6,7]naphtho[1,2-d]imidazol-9-yl}-1H-imidazol-2-yl)-4-methylpyrrolidin-1-yl]-3-methyl-1-oxobutan-2-yl}carbamate], the EC50 is 0.027 nM in experiment [1]; 0.02 nM in experiment [2]; below 0.1 nM in experiment [2] (activity range); 0.011 nM in experiment [3] (setting [8]); below 0.1 nM in experiment [3] (setting [9]); 0.1 to 0.999 nM in experiment [4] (setting [10]). Further, the EC50 is 0.247 nM in experiment [4] (setting [11]), 0.07 nM in experiment [5] (setting [12]) and below 0.1 nM in experiment [5] (setting [13]).

Turning to `CC[C@H](C)[C@H](NC(=O)OC)C(=O)N1[C@@H](C)CC[C@H]1c1nc2ccc3cc4c(cc3c2[nH]1)OCc1cc(-c2cnc([C@@H]3C[C@H](COC)CN3C(=O)[C@@H](NC(=O)OC)C(C)C)[nH]2)ccc1-4` [FS, Methyl {(2S,3S)-1-[(2S,5S)-2-(9-{2-[(2S,4S)-1-{(2S)-2-[(methoxycarbonyl)amino]-3-methylbutanoyl}-4-(methoxymethyl)pyrrolidin-2-yl]-1H-imidazol-5-yl}-1,11-dihydroisochromeno[4′,3′:6,7]naphtho[1,2-d]imidazol-2-yl)-5-methylpyrrolidin-1-yl]-3-methyl-1-oxopentan-2-yl}carbamate], the EC50 is 0.025 nM in experiment [1]; 0.024 nM in experiment [2]; below 0.1 nM in experiment [2] (activity range); 0.025 nM in experiment [3] (setting [8]); below 0.1 nM in experiment [3] (setting [9]); 0.1 to 0.999 nM in experiment [4] (setting [10]). Moreover, the EC50 in experiment [4] (setting [11]) is 0.784 nM; in experiment [5] (setting [12]) it was 0.411 nM; in experiment [5] (setting [13]), 0.1 to 0.999 nM; in experiment [6] (setting [14]), 0.017 nM; in experiment [6] (setting [15]) it was below 0.1 nM.

Consider `COC(=O)N[C@H](C(=O)N1[C@@H](C)CC[C@H]1c1ncc(-c2ccc3c(c2)COc2cc4c(ccc5nc([C@@H]6C[C@H](C)CN6C(=O)[C@@H](NC(=O)OC)[C@H](C)OC)[nH]c54)cc2-3)[nH]1)C(C)C` [FU, Methyl {(2S)-1-[(2S,5S)-2-(5-{2-[(2S,4S)-1-{(2S,3S)-3-methoxy-2-[(methoxycarbonyl)amino]butanoyl}-4-methylpyrrolidin-2-yl]-1,11-dihydroisochromeno[4′,3′:6,7]naphtho[1,2-d]imidazol-9-yl}-1H-imidazol-2-yl)-5-methylpyrrolidin-1-yl]-3-methyl-1-oxobutan-2-yl}carbamate], for which the EC50 is 0.032 nM in experiment [1]; 0.028 nM in experiment [2]; below 0.1 nM in experiment [2] (activity range); 0.021 nM in experiment [3] (setting [8]); below 0.1 nM in experiment [3] (setting [9]); 0.1 to 0.999 nM in experiment [4] (setting [10]). For the same compound, the EC50 is 0.347 nM in experiment [4] (setting [11]); 0.337 nM in experiment [5] (setting [12]); 0.1 to 0.999 nM in experiment [5] (setting [13]); 0.018 nM in experiment [6] (setting [14]); below 0.1 nM in experiment [6] (setting [15]).

With `CC[C@H](C)[C@H](NC(=O)OC)C(=O)N1CCC[C@H]1c1ncc(-c2ccc3c(c2)COc2cc4c(ccc5nc([C@@H]6CCCN6C(=O)[C@@H](NC(=O)OC)[C@@H](C)CC)[nH]c54)cc2-3)[nH]1` [HH], the EC50 in experiment [3] (setting [8]) worked out at 0.012 nM; in experiment [7] it was 3 nM; in experiment [4] (setting [11]), 2.25 nM; in experiment [5] (setting [12]), 0.06 nM; in experiment [6] (setting [14]) it was 0.011 nM.
